Data from patent US5747505A, “Heterocyclic aryl-, alkyl- and cycloalkylacetamides” (Bayer Aktiengesellschaft, priority 1995, dated 1998).

Each compound was assayed on release of ApoB-100-associated lipoproteins from HepG2 cells (assay: Inhibition of the release of ApoB-100-associated lipoproteins from cultivated liver cells (HepG2), immunoassay for human LDL). Conditions: substance concentration at which light absorption (450 nm) is inhibited by 50% vs solvent control.
Type: cell-based
Procedure: 1. Inhibition of the release of ApoB-100-associated lipopnoteins
The test for detecting the inhibition of the release of ApoB-100-associatedlipoproteins-from liver cells was carried out in vitro using cultivated liver cells, preferably using cells of the human line HepG2. These cells are grown under standard conditions in medium for the culture of eukaryotic cells, preferably in RPMI 1640 with 10% foetal calf serum. HepG2 cells synthesize and secrete into the culture supernatant ApoB-100-associated lipoprotein particles which in principle are constructed similarly to the VLDL and LDL particles which are to be found in the plasma.
These particles can be detected using an immunoassay for human LDL. This immunoassay is carried out using antibodies which have been induced against human LDL in the rabbit under standard conditions. The anti-LDL antibodies (rabbit anti-LDL Ab) were purified by affinity chromatography on an immunosorbent using human LDL. These purified rabbit anti-LDL Ab are adsorbed on the surface of plastic. Expediently, this adsorption takes place on the plastic surface of microtiter plates having 96 wells, preferably on MaxiSorp plates. If ApoB-100-associated particles are present in the supernatant of Hep-G2 cells, these can bind to the insolubilized rabbit anti-LDL Ab and an immune complex is formed which is bound to the plastic surface. Non-bound proteins are removed by washing. The immune complex on the plastic surface is detected using monoclonal antibodies which have been induced against human LDL and purified according to standard conditions. These antibodies were conjugated with the enzyme peroxidase. Peroxidase converts the colourless substrate TMB into a coloured product in the presence of H2 O2. After acidification of the reaction mixture with H2 SO4, the specific light absorption at 450 nm is determined, which is a measure of the amount of ApoB-100-associated particles which have been secreted into the culture supernatant by the HepG2 cells.
The IC50 value indicates at which substance concentration the light absorption is inhibited by 50% in comparison with the control (solvent control without substance).

Row | Compound | IC50
1 | O=C(N[C@@H](CO)c1ccccc1)C(c1ccc(OCc2ccccc2Cl)cn1)C1CCCCCC1 (stereo partly shown) [Example 3] | 71 nM
2 | O=C(N[C@H](CO)c1ccccc1)C(c1ccc2cc(OCc3ccc4ccccc4n3)ccc2c1)C1CCCC1 (stereo partly shown) [Example 11] | > 2000 nM
3 | O=C(N[C@@H](CO)c1ccccc1)C(c1ccc2cc(OCc3ccc4ccccc4n3)ccc2c1)C1CCCC1 (stereo partly shown) [Example 8] | 1880 nM
4 | Cc1ccc(CNC(=O)C(c2ccc3cc(OCc4ccc5ccccc5n4)ccc3c2)C2CCCC2)cc1 (stereo not shown) [Example 12] | > 2000 nM
5 | O=C(N[C@@H](CO)c1ccccc1)C(c1ccc(OCc2ccc3ccccc3n2)cn1)C1CCCCCC1 (stereo partly shown) [Example 6] | 255 nM
6 | O=C(NCc1ccccc1)C(c1ccccc1)N1CCC(OCc2ccc3ccccc3n2)CC1 (stereo not shown) [Example 2] | > 2000 nM
7 | O=C(NCc1ccccc1)C(c1ccc(OCc2ccccc2Cl)cn1)C1CCCCCC1 (stereo not shown) [Example 4] | 11 nM
8 | O=C(N[C@@H](CO)c1ccccc1)C(c1ccc(OCc2ccc3ccccc3n2)cn1)C1CCCC1 (stereo partly shown) [Example 5] | 622 nM
9 | O=C(NCC1CCCCC1)C(c1ccc2cc(OCc3ccc4ccccc4n3)ccc2c1)C1CCCC1 (stereo not shown) [Example 9] | > 2000 nM
10 | O=C(N[C@@H](CO)c1ccccc1)[C@H](c1ccc(OCc2ccc3ccccc3n2)cn1)C1CCCCCC1 [Example 13] | 235 nM
11 | COc1cc(CNC(=O)C(c2ccc3cc(OCc4ccc5ccccc5n4)ccc3c2)C2CCCC2)ccc1O (stereo not shown) [Example 10] | > 2000 nM
12 | O=C(N[C@@H](CO)c1ccccc1)C(c1ccc(OCc2ccc3ccccc3n2)s1)C1CCCCCC1 (stereo partly drawn) [Example 1, 2-Cycloheptyl-N-(2-hydroxy-1(R)-phenylethyl)-2-[5-(quinoline-2-ylmethoxy)thiophen-2-yl]acetamide] | 195 nM
13 | O=C(N[C@@H](CO)c1ccccc1)[C@@H](c1ccc(OCc2ccc3ccccc3n2)cn1)C1CCCCCC1 [Example 14] | 235 nM
